Measurements published in patent publication US20190022117A1, “COMBINATION THERAPY” (NuCana plc, priority 2015, published 2019).
Like-named read-outs stand apart in the source and are kept apart here.

Columns and labels:
[1] = tested on: 5637; assay: CellTiter-Glo cytotoxicity assay, single agents (Stage 1); type: cell-based; settings: CTG assay 72 h
Method: (§1) A2780, SK-OV-3, OVCAR-3, NCI-H460, NCI-H1975, NCI-H2122, 5637 and HT1376 were cultured in RPMI Medium 1640 (Invitrogen-22400105) supplemented with 10% fetal bovine serum (FBS; Invitrogen-10099141). All the cell lines were maintained in a humidified incubator at 37° C. with 5% CO2. Cell culture media and supplements were purchased from Invitrogen, and tissue culture flasks were purchased from Corning, 96-well plates and 384-well plates were purchased from Greiner. CellTiter-Glo Luminescent Cell Viability Assay kits were purchased from Promega (Promega-G7573), cells counter Vi-Cell was purchased from Beckman, detection instrument Envision was purchased from PerkinElmer.
(§2) Paclitaxcel (used as a reference) and cisplatin were purchased from SELLECK, and they were of highest purity available. All compounds attained solubility in DMSO and when diluted into culture media. DMSO, compounds solutions and culture media were warmed to 37° C. for the solution preparation and dilutions.
(§3) Eight cell lines were allowed to adhere to 96-well plates overnight (100 μL/well), for drug treatments with 3.16 fold dilution, 9 dose points, triplicates or vehicle control, compound stock solutions were prepared in DMSO and added to the wells to give the indicated final drug concentrations. Final DMSO concentration was 0.5%. Cellular ATP concentrations were assessed by using the CellTiter-Glo Cell Viability Assay as per the manufacturer's instructions 72 h after drug addition.
(§4) In Stage 1 the IC50 (using 5 or more concentrations) of each individual compound (cisplatin, gemcitabine and NUC-1031) in the relevant cell lines was determined.

[2] = tested on: A2780; assay: as above; type: cell-based; settings: CTG assay 72 h; for IC50: Homo sapiens
Method: as §1, §2, §3, §4

[3] = tested on: HT1376; assay: as above; type: cell-based; settings: for IC50: Homo sapiens, HT-1376, CTG assay 72 h
Method: as §1, §2, §3, §4

[4] = tested on: NCI-H1975; assay: as above; type: cell-based; settings: CTG assay 72 h; for IC50: Homo sapiens
Method: as §1, §2, §3, §4

[5] = tested on: NCI-H460; assay: as above; type: cell-based; settings: CTG assay 72 h; for IC50: Homo sapiens
Method: as §1, §2, §3, §4

[6] = tested on: OVCAR-3; assay: as above; type: cell-based; settings: CTG assay 72 h; for IC50: Homo sapiens
Method: as §1, §2, §3, §4

[7] = tested on: SK-OV3; assay: as above; type: cell-based; settings: for IC50: Homo sapiens, SK-OV-3, CTG assay 72 h
Method: as §1, §2, §3, §4

[8] = ProGem1 clinical study (NUC-1031 alone), plasma pharmacokinetics; type: in vivo, human
Source text: (§5) ProGem1 was a first-time-in-human (FTIH), phase I, open label, two stage study to investigate the safety, tolerability, clinical efficacy, pharmacokinetics (PK) and pharmacodynamics (PD) of NUC-1031 given in two parallel dosing schedules in subjects with advanced solid malignancies (EudraCT Number: 2011-005232-26). Subjects had the following tumour types at study entry: colorectal cancer (7 subjects), unknown primary (3), ovarian cancer (12), breast cancer (4), pancreatic cancer (9), cholangiocarcinoma (7), endometrial cancer (3), cervical cancer (2), lung cancer (7), mesothelioma (3), oesophageal cancer (3), cancer of the fallopian tube (1), trophoblast (1), renal cancer (1), gastric cancer (1), anal cancer (1), cancer of the thymus (1) and osteosarcoma (1).

[9] = ABC-008 clinical study (NUC-1031 in combination with cisplatin), plasma pharmacokinetics; type: in vivo, human
Method: Initial pharmacokinetic analysis was conducted on samples obtained from the first three patients on the ABC-008 clinical study.
Patient 1: —Metastatic Biliary Tract Carcinoma—Starting dose: 625 mg/m^2 (S)-NUC-1031+25 mg/m^2 cisplatin
Patient 2: —Metastatic Biliary Tract Carcinoma—Starting dose: 625 mg/m^2 (S)-NUC-1031+25 mg/m^2 cisplatin
Patient 3: —Metastatic Biliary Tract Carcinoma—Starting dose: 625 mg/m^2 (S)-NUC-1031+25 mg/m^2 cisplatin
Both NUC-1031 and cisplatin were administered on days 1 and 8 of a 21 day cycle.
An appropriate dosage of 625 mg/m^2 of NUC-1031 was prepared in a Luerlock syringe. The dosage given was based on the subject's height and weight using a standard body surface area (BSA) calculation. A polyethylene extension line was primed with up to 1.5 ml of Flushing Solution, prior to connecting the syringe containing NUC-1031 to the extension line.
The extension line was connected to the patient's Central Venous Access Device (CVAD), and NUC-1031 was injected at a rate of 20 ml/hour using a syringe pump.
Once the injection was complete the NUC-1031 syringe was disconnected from the extension line, and the extension line was then flushed with an additional volume of up to 3 ml of Flushing solution.

[10] = ProGem1 clinical study (NUC-1031 alone), intracellular dFdCTP pharmacokinetics; type: in vivo, human; settings: ProGem1 (n = 67), NUC-1031 as a single agent; no normalisation
Source text: as §5

[11] = absolute IC50, read-out: Ab IC50
[12] = ABC-008 (with cisplatin) compared to ProGem1 (single agent NUC-1031)

With `C[C@H](NP(=O)(OC[C@H]1O[C@@H](n2ccc(N)nc2=O)C(F)(F)[C@H]1O)Oc1ccccc1)C(=O)OCc1ccccc1` (stereo partly drawn) [NUC-1031, 2′-Deoxy-2′,2′-difluoro-D-cytidine-5′-O-[phenyl (benzoxy-L-alaninyl)] phosphate] the “Max Inhibition_%” value [1] was 77.88%, the IC50 [1, 11] was 200 nM and the IC50 ([1]; relative IC50, read-out: IC50) was 120 nM. The “Max Inhibition_%” value [2] was 79.15%, the IC50 [2, 11] was 25 nM and the IC50 ([2]; relative IC50, read-out: IC50) was 16 nM. The “Max Inhibition_%” value ([3]; CTG assay 72 h) was −2.54%, the IC50 [3, 11] was over 1980 nM and the IC50 ([3]; relative IC50, read-out: IC50) was over 1980 nM. For the same molecule, the “Max Inhibition_%” value [4] was 37.91%, the IC50 [4, 11] was over 1980 nM and the IC50 ([4]; relative IC50, read-out: IC50) was 370 nM. For the same molecule, the “Max Inhibition_%” value [5] was 91.98%, the IC50 [5, 11] was 40 nM and the IC50 ([5]; relative IC50, read-out: IC50) was 40 nM. For the same molecule, the “Max Inhibition_%” value [6] was 11.76%, the IC50 [6, 11] was over 1980 nM and the IC50 ([6]; relative IC50, read-out: IC50) was 200 nM. For the same molecule, the “Max Inhibition_%” value ([7]; CTG assay 72 h) was 61.59%, the IC50 [7, 11] was 70 nM and the IC50 ([7]; relative IC50, read-out: IC50) was 60 nM. The “levels of the metabolite dFdU relative to gemcitabine” value ([8]; ProGem1, compared with levels normally associated with gemcitabine) was “less than half”, the clearance ([8]; human, plasma, ProGem1 (n = 67), NUC-1031 as a single agent) was 86.7 mL/min and the Cmax ([8]; human, plasma, ProGem1 (n = 67), NUC-1031 as a single agent, no normalisation) was 66.5 µg/mL. For the same molecule, the AUC(0-t) ([8]; human, plasma, ProGem1 (n = 67), NUC-1031 as a single agent, no normalisation, read-out: Mean AUC0-24, plasma NUC-1031) was 66500 ng·h/mL, the half-life ([8]; human, plasma, ProGem1 (n = 67), NUC-1031 as a single agent, read-out: Mean terminal t1/2, plasma NUC-1031 (converted)) was 54 min and the Tmax ([8]; human, plasma, ProGem1 (n = 67), NUC-1031 as a single agent, read-out: Median Tmax, plasma NUC-1031) was 30 min. For the same molecule, the “AUC increase, NUC-1031 plasma” value [9, 12] was 2.1 fold, the “Cmax increase, NUC-1031 plasma” value [9, 12] was 1.9 fold and the “increase in half-life, NUC-1031 plasma PK parameters” value ([9]; ABC-008 (with cisplatin) compared to single agent NUC-1031) was 3.6 fold. For the same molecule, the “Mean AUC0-24, intracellular dFdCTP” value [10] was 1379.0 pmol/million cells · hr and the “Mean Cmax, intracellular dFdCTP” value [10] was 391.8 pmol/million cells.
